Experimental data: patent publication US20120122840A1, “COMPOUNDS AND THERAPEUTIC USES THEREOF” (Myrexis, Inc., priority 2009, published 2012)
Values belong to the compound of their own block, whether it stands above or below them. Peptide text beside a SMILES is read from it. * marks the point of attachment. Cbz = O=C(OCc1ccccc1)*; CH2F = FC*

Tests used:
[1] = system: p53 on serine 15 and H2AX on serine 139; experiment: Effect of ATM, ATM/ATR and DNA-PK inhibitors on Compound A-induced phosphorylation in HCT-116 cells; assay type: cell-based; conditions: 5 μM inhibitor with 1 μM Compound A
Experimental: Phosphorylation of either p53 on serine 15 or H2AX on serine 139 is often mediated by the DNA damage checkpoint proteins, ATM or ATR. […] As a positive control, cells were treated with the UV mimetic 4-NQO (5 μM). Cell lysates were analyzed by Western blot with anti-p53, anti-p53-pS15, anti-H2AX-pS139 and anti-GAPDH antibodies (see FIGS. 6A-6C). […] Phosphorylation of p53 on serine 15 and H2AX on serine 139 appears mediated by ATR kinase in response to TTK inhibition.

HeLa cells = experiment: Cell cycle progression after double thymidine block (propidium iodide, flow cytometry); assay type: cell-based; conditions: VX-680 at 500 nM
Experimental: HeLa cells were synchronized in the G1 phase of the cell cycle using a double thymidine block. The cells were released from the block by removing the media and replacing it with media containing DMSO, 500 nM VX-680 (Aurora inhibitor), or a TTK inhibitor. At the indicated time points, cells were fixed with methanol, permeabilized and stained with propidium iodide. DNA content was analyzed using a Guava EasyCyte flow cytometer.
This is due to improper spindle formation and chromosome segregation followed by failed cytokinesis. Previously, it has been shown that inhibition of TTK using siRNA results in chromosome missegregation and mitotic defects. Using TTK inhibitors of the present invention, defects in chromosome segregation were observed. Therefore, the effect of the TTK inhibitors of the present invention were analyzed for their effect on cell cycle progression and/or DNA content.

Aurora A [2] = molecular target: T1, Aurora A (Homo sapiens, UniProt O14965); experiment: Direct target affinity purification (DTAP) from cell lysates; assay type: binding; conditions: compound coupled to Sepharose beads
T1 sequence (O14965 1-403): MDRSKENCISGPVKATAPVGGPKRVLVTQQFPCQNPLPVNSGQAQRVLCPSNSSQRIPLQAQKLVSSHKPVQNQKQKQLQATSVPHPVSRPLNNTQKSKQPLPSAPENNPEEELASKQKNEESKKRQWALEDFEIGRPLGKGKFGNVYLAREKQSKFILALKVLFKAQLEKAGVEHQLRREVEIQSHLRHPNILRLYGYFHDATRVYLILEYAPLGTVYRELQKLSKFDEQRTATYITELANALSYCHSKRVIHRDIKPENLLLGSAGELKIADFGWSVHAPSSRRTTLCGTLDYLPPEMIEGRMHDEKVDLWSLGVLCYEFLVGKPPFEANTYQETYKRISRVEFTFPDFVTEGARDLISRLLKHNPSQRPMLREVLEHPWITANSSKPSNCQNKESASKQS
From the text: (§1) Direct target affinity purification (DTAP) was used to investigate (1) the selectivity of compounds of the invention for TTK, relative to other kinases, and (2) the importance of a specific methyl substituent in providing that selectivity.
(§2) In preparation for DTAP studies, the two compounds depicted above were synthesized with an alkyl-amine linker to allow covalent coupling to epoxy-activated Sepharose 6B beads (GE Healthcare, Piscataway, N.J.). Sepharose beads were swollen and washed with water for 30 min followed by equilibration in coupling buffer (50% dimethylformamide, 50 mM Na2CO3). Beads were pelleted by centrifugation (15 sec at 2000×g) and the supernatant removed by aspiration. An equal volume of coupling buffer containing the linkered test compound was used to resuspend the beads. Compound concentrations in the coupling reaction ranged from 0.1 mM to 12.5 mM. The coupling reactions were incubated at 34° C. for 18 hrs on a rotator mixer. Ethanolamine was added to 1 M for the final 1 hr to quench the coupling reaction. Beads were washed extensively with binding buffer (1 M NaCl, 50 mM Hepes [pH 7.4], 1% Triton X-100, 1 mM EDTA and 1 mM dithiothreitol) to remove residual coupling reagents, and were then stored at 4° C.
(§3) Cellular proteins were prepared by mild sonication in lysis buffer (150 mM NaCl, 50 mM Hepes [pH 7.4], 1% Triton X-100, 1 mM EDTA and 2 mM dithiothrietol containing 1× Halt™ protease and phosphatase inhibitor cocktail [Thermo Fisher Scientific, Rockford, Ill.]). Lysates were centrifuged (20,000×g for 20 min) to remove debris, diluted to a protein concentration of ˜5 mg/ml, divided into aliquots, and stored at −80° C.
(§4) For DTAP reactions, cell lysates (˜0.5 ml per binding reaction) were thawed and the NaCl concentration adjusted to 1 M. Competitor compounds dissolved in DMSO (or a DMSO control) were then added to the lysate and incubated on ice for 5 min. The lysates were centrifuged at 20,000×g for 10 min and the cleared supernatant was transferred to a tube containing 50 μl of coupled beads. The binding reactions were incubated on a rotator mixer at 4° C. for 2 hrs, after which the beads were pelleted by centrifugation and the supernatant removed by aspiration. The beads were washed three times with 20 volumes of binding buffer, 2× with 20 volumes wash buffer (150 mM NaCl, 50 mM Hepes [pH 7.4], 1% Tween 20, 1 mM EDTA, 2 mM dithiothrietol) and finally twice with 10 volumes of 150 mM NaCl, 50 mM Hepes [pH 7.4].
(§5) During the final wash, an aliquot containing 10 μl of beads was transferred to a separate tube and resuspended with 15 μl of 2× SDS/PAGE loading buffer (Invitrogen Corporation, Carlsbad, Calif.) for 5 min at 90° C. The eluted proteins were resolved by electrophoresis on a NuPage 4-12% Bis-Tris Gel (Invitrogen Corporation, Carlsbad, Calif.) and visualized by staining with Ruby Red (Invitrogen Corporation, Carlsbad, Calif.). The remaining beads (40 μl) were processed for analysis by mass spectrometry.

FER [3] = molecular target: T2, FER (Homo sapiens, UniProt P16591); experiment: as above; assay type: binding; conditions: compound coupled to Sepharose beads
From the text: as §1, §2, §3, §4, §5

JAK1 [4] = molecular target: T3, JAK1 (Homo sapiens, UniProt P23458); experiment: as above; assay type: binding; conditions: compound coupled to Sepharose beads
T3 construct: Cellular proteins were prepared by mild sonication in lysis buffer; endogenous in cells
From the text: as §1, §2, §3, §4, §5

JNK [5] = molecular target: T4, JNK (Homo sapiens, UniProt P45983); experiment: as above; assay type: binding; conditions: compound coupled to Sepharose beads
From the text: as §1, §2, §3, §4, §5

Aurora A [6] = molecular target: T1, Aurora A; experiment: In vitro binding assays
FER [7] = molecular target: T2, FER; experiment: In vitro binding assays
JNK [8] = molecular target: T4, JNK; experiment: In vitro binding assays
JAK1 [9] = molecular target: T3, JAK1; experiment: In vitro binding assays
TTK = molecular target: T5, TTK (Homo sapiens, UniProt P33981); experiment: TTK inhibition assay ([γ-33P]ATP transfer to phosphorylated MBP); assay type: biochemical; design: A. Recombinant TTK enzyme; conditions: read-out: inhibition of the protein kinase activity of TTK, IC50
T5 sequence (P33981 1-857): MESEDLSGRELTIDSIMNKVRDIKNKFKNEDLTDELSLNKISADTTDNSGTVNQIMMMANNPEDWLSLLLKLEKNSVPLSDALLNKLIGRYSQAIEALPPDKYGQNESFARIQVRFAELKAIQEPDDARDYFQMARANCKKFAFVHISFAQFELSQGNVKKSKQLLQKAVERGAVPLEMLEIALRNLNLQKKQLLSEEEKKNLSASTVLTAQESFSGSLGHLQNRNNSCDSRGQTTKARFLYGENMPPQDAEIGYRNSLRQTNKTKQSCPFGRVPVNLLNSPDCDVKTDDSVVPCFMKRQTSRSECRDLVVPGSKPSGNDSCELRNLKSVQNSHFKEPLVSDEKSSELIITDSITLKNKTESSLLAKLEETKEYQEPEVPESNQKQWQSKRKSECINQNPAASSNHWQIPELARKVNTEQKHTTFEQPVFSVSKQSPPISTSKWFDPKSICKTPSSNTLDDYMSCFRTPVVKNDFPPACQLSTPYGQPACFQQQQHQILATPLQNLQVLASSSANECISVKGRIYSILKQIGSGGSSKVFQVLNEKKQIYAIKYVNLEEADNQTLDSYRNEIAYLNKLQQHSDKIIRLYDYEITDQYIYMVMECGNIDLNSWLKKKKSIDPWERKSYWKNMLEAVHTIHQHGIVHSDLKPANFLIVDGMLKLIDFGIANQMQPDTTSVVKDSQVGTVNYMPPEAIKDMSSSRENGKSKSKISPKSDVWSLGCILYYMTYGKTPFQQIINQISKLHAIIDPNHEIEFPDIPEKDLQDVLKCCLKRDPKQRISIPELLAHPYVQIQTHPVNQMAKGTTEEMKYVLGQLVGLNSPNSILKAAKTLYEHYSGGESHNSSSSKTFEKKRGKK
Experimental: The compounds of the invention were also tested in the following assay to determine TTK-inhibitory activity. This assay measures transfer of radioactive phosphate from ATP to a protein substrate in the presence or absence of a test compound.
MATERIALS: • A. Recombinant TTK enzyme; • B. Phosphorylated myelin basic protein (MBP); • C. [γ-^33P]ATP: 1 mCi/100 μL; • D. Positive Control: a proprietary compound known to have […] in this assay.
Final concentrations of reaction mixture components (50 μl total volume): 50 mM Tris-HCl, pH 7.5; 0.01% Triton X-100; 10 mM MgCl2; 25 ng TTK (˜4 nM); 5 μM Phosphorylated MBP; 40 μM ATP (1 μCi/well, adjusted ATP specific activity according to strength of radiolabeled ATP).
Mixes were assembled in the wells of a 96-well polypropylene plate as follows: 1 μL 50× compound to be tested; 39 μL 1.282× Reaction Mix; 10 μL 5×ATP Mix.
The following reaction/assay steps were then performed: • 1. Mix thoroughly and incubate at room temperature for 45 minutes; • 2. Add 70 μL/well, except in background wells, of 3% phosphoric acid to terminate reaction, and transfer 100 μL to P81 filter plate; • 3. Wash with 1% phosphoric acid, then dry the P81 filter plate completely; • 4. Add 100 μL/well MicroSint-20 (PerkinElmer #6013621) and seal; • 5.

HCT-116 cells = experiment: Effect of caspase inhibition on Compound A responses in HCT-116 cells; assay type: cell-based
Experimental: Caspase 3/7 activity was determined with a Caspase-Glo 3/7 assay (see FIG. 7A). Cell lysates were analyzed by Western blot with antibodies specific for H2AX-pS139, p53-pS15, p53 or GAPDH (see FIG. 7B).

T3 sequence (P23458 whole entry, species assumed): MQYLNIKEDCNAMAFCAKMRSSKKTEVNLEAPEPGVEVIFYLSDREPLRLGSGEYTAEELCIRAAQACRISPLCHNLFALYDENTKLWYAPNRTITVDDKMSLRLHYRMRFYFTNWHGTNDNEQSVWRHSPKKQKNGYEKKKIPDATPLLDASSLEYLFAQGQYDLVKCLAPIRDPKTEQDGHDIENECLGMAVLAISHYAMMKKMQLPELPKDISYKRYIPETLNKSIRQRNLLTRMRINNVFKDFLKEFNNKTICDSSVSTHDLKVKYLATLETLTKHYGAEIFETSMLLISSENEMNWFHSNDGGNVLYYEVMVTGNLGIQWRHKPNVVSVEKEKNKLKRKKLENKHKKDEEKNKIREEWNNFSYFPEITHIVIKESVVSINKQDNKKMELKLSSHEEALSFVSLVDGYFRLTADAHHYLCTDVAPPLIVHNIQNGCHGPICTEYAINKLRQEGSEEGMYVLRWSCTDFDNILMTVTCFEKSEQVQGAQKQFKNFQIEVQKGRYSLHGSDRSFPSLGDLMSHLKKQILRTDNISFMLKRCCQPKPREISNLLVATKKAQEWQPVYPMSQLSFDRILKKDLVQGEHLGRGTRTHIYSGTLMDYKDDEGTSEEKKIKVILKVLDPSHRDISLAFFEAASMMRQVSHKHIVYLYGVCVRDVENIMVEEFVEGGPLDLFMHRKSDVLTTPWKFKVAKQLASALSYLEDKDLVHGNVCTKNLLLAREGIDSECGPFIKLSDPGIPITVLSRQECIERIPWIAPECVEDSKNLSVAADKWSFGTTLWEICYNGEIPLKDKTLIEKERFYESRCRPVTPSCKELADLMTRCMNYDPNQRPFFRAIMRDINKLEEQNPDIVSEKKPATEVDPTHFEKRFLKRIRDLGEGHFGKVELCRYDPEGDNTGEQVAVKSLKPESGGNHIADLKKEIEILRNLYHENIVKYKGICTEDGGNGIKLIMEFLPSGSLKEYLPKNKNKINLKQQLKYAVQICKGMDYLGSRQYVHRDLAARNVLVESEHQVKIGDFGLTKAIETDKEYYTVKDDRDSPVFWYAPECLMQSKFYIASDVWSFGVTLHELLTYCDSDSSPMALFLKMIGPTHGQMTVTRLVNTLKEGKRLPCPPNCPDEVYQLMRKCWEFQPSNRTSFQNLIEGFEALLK
T4 sequence (P45983 whole entry): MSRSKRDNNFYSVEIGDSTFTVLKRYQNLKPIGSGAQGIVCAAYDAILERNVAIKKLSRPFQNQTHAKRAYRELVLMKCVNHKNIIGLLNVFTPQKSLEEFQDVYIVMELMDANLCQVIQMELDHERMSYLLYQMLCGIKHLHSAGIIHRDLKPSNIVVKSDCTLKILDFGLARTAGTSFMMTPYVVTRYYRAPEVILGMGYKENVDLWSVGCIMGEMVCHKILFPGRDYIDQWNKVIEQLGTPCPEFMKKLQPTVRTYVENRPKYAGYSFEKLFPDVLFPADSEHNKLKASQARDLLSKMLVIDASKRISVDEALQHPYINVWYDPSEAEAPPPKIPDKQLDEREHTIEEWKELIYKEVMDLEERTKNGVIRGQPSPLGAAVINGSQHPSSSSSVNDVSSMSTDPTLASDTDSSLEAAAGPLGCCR
T2 sequence (P16591 whole entry, species assumed): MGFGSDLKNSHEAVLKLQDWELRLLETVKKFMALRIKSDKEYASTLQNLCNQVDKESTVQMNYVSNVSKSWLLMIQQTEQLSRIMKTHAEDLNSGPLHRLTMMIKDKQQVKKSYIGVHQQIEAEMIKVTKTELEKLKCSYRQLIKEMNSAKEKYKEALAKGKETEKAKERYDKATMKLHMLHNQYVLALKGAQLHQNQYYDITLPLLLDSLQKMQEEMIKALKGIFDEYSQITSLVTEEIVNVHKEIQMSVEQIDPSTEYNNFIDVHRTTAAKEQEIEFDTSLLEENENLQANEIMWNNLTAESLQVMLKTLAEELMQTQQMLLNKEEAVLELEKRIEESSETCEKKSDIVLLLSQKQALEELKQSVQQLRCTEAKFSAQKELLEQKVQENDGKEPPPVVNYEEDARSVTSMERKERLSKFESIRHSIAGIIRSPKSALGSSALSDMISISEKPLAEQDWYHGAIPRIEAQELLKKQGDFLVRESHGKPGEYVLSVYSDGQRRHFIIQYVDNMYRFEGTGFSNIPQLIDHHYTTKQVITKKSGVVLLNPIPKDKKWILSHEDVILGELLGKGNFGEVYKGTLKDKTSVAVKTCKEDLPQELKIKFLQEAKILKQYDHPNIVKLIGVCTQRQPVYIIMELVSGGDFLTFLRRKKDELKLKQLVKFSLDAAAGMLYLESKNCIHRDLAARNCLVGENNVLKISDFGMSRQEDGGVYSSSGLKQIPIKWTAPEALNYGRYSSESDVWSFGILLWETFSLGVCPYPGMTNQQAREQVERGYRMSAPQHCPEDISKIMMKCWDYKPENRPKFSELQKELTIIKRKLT

SMILES: O=C(NC(NC(=S)Nc1ccc(F)c([N+](=O)[O-])c1)C(Cl)(Cl)Cl)C(c1ccccc1)c1ccccc1 (centres unmarked) [CGK733]
effect on p53 (and H2AX) phosphorylation in response to Compound A [1]: blocked p53 and H2AX phosphorylation

SMILES: O=c1cc(-c2cccc3c2Sc2ccccc2S3)oc(N2CCOCC2)c1 [KU-55933]
effect on p53 (and H2AX) phosphorylation in response to Compound A [1]: had no effect

SMILES: Cc1cc(Nc2cc(N3CCN(C)CC3)nc(Sc3ccc(NC(=O)C4CC4)cc3)n2)n[nH]1 [VX-680]
DNA content / cell cycle progression after release from G1 block (HeLa cells): causes cells to become tetraploid

binding of Aurora A from cell lysates to bead-coupled compound (Aurora A [2]): failed to bind | binding of FER from cell lysates to bead-coupled compound (FER [3]): reduced affinity | binding of JAK1 from cell lysates to bead-coupled compound (JAK1 [4]): reduced affinity | binding of JNK from cell lysates to bead-coupled compound (JNK [5]): reduced affinity | IC50 (Aurora A [6]): > 5 µM | IC50 (FER [7]): 380 nM | IC50 (JNK [8]): 120 nM | IC50 (JAK1 [9]): > 5 µM | IC50 (TTK): 3 nM
SMILES: Cc1cc(OCCCN)ccc1Nc1nc(NC2CCCCC2)c2nc[nH]c2n1 [N2-(4-(3-Aminopropoxy)-2-methylphenyl)-N6-cyclohexyl-9H-purine-2,6-diamine]

SMILES: COC(=O)C[C@H](NC(=O)[C@H](C)NC(=O)[C@@H](NC(=O)OCc1ccccc1)C(C)C)C(=O)CF [Z-VAD-FMK] (Cbz-Val-Ala-Asp(OMe)-CH2F)
effect on TTK inhibitor-induced H2AX phosphorylation (HCT-116 cells; 100 μM Z-VAD-FMK 1 hour before 1 μM Compound A, 48 hours): prevents TTK inhibitor-induced H2AX phosphorylation | effect on TTK inhibitor-induced p53 phosphorylation and on cell viability (HCT-116 cells; 100 μM Z-VAD-FMK pre-treatment, viability after 72 hours (Cell Titer-Glo)): has no effect on either p53 phosphorylation or cell viability
